Experimental findings from patent US11691968B2, “Compound having KDM5 inhibitory activity and pharmaceutical use thereof” (ONO PHARMACEUTICAL CO., LTD., priority 2020, dated 2023) are described below.

In data set [1] the target is KDM5A (Homo sapiens (Human), UniProt P29375). Put plainly: Biochemical KDM5A Inhibition Assay (HTRF). Conditions: KDM5A protein, biotin-labelled H3K4-Me3 substrate. Here is the method: Biochemical KDM5A Inhibition Assay
Using 384-well white Greiner784075 (Greiner), representative compounds were characterized for their inhibition of KDM5A using HTRF® technology (Cisbio Bioassays). Briefly, the test compounds, reference compounds, and DMSO control (typical compound concentration range 1 μM-[…], final assay concentration (FAC*) of DMSO 0.5%) were added to 384-well plate by the Echo® acoustic dispensing platform (Labcyte). Five (5) 1l of KDM5A protein (produced by the method described in Nat Chem Biol 12, 531-538 (2016)). (5-20 nM FAC*) in assay buffer (50 mM MES, 50 mM NaCl, 1 mM TCEP, 0.01% v/v Tween 20, 0.03% BSA, pH 6.5) was added to wells and plates were incubated for 10-20 minutes at 25 degrees celsius. Then, 5 μl of alpha-ketoglutaric acid (100 μM FAC*), biotin-labelled H3K4-Me3 substrate (Anaspec Cat #AS-64357-1; 200 nM FAC*), Fe(II)SO4 (100 μM FAC*) and ascorbic acid (2 mM FAC*) in assay buffer was added to wells and plates were incubated for 20 minutes at room temperature. The reaction was stopped with the addition of 10 μl of anti-H3K4-Me2-Eu(K) (Cisbio Bioassays Cat #61KA2KAH; 0.75 nM FAC**)+Streptavidin XL665 (Cisbio Bioassays Cat #610SAXLB; 25 nM FAC**) in HTRF detection buffer (Cisbio Bioassays Cat #62SDBRDF). The mixture was incubated for 30 minutes at room temperature before 340 nm excitation and measurement of dual emission at 620 nm and 665 run. *FAC: final assay concentration calculated based on 10 μl of the assay buffer**FAC: final assay concentration calculated based on 20 μl of the detection buffer
The raw data (a 665 nm and a 620 nm reading from each well) for individual assay plates were analyzed. The ratio of emissions was calculated using the following calculation: Ratio=(665 nm emission/620 nm emission)×10000. […] Compound IC50 values were calculated from graphs of % inhibition plotted against compound concentration, using a four parameter curve fit. [Results]

Data set [2] in a line: Metabolic Stability in Human Liver Microsomes. The format is in vitro ADME. Here is the method:
Metabolic Stability in Human Liver Microsomes
Human liver microsome (BD Gentest Corporation, Cat No. #452161) incubations were conducted in duplicate in 96-well plates. Each well contains 40 μL of 0.1 M potassium phosphate buffer (pH 7.4), 4.125 mM MgCl2, 0.625 mg/mL liver microsomes, and test compound (1.25 μM). After 5-min preincubation at 37° C., 10 uL of 5.0 mM NADPH in 0.1M potassium phosphate buffer was added to initiate the enzymatic reaction. The final component concentrations are 0.1M potassium phosphate buffer (pH 7.4), 1.0 mM NADPH, 3.3 mM MgCl2, 0.5 mg/mL liver microsomes, and test compound (1.0 μM). Reactions were terminated at 0 and 60 min by adding 200 μL of ice-cold acetonitrile containing internal standard.
LC-MS/MS analysis was conducted as specified below.
The remaining at 60 min (%) of test compound was calculated from the peak area ratio (test compound/internal standard) of samples collected 0 and 60 min after the start of the reaction according to the formula described below. Remaining at 60 min (%)=peak area ratio of sample collected at 60 min/peak area ratio of sample collected at 0 min×100 [Results]
On the technique in general: Liver microsomes are a subcellular fraction often used to study metabolism.

[3] abbreviates: 0.5 mg/mL liver microsomes, 1.0 μM test compound, 1.0 mM NADPH, 37° C., 60 min.

Sequence of KDM5A (P29375 whole entry): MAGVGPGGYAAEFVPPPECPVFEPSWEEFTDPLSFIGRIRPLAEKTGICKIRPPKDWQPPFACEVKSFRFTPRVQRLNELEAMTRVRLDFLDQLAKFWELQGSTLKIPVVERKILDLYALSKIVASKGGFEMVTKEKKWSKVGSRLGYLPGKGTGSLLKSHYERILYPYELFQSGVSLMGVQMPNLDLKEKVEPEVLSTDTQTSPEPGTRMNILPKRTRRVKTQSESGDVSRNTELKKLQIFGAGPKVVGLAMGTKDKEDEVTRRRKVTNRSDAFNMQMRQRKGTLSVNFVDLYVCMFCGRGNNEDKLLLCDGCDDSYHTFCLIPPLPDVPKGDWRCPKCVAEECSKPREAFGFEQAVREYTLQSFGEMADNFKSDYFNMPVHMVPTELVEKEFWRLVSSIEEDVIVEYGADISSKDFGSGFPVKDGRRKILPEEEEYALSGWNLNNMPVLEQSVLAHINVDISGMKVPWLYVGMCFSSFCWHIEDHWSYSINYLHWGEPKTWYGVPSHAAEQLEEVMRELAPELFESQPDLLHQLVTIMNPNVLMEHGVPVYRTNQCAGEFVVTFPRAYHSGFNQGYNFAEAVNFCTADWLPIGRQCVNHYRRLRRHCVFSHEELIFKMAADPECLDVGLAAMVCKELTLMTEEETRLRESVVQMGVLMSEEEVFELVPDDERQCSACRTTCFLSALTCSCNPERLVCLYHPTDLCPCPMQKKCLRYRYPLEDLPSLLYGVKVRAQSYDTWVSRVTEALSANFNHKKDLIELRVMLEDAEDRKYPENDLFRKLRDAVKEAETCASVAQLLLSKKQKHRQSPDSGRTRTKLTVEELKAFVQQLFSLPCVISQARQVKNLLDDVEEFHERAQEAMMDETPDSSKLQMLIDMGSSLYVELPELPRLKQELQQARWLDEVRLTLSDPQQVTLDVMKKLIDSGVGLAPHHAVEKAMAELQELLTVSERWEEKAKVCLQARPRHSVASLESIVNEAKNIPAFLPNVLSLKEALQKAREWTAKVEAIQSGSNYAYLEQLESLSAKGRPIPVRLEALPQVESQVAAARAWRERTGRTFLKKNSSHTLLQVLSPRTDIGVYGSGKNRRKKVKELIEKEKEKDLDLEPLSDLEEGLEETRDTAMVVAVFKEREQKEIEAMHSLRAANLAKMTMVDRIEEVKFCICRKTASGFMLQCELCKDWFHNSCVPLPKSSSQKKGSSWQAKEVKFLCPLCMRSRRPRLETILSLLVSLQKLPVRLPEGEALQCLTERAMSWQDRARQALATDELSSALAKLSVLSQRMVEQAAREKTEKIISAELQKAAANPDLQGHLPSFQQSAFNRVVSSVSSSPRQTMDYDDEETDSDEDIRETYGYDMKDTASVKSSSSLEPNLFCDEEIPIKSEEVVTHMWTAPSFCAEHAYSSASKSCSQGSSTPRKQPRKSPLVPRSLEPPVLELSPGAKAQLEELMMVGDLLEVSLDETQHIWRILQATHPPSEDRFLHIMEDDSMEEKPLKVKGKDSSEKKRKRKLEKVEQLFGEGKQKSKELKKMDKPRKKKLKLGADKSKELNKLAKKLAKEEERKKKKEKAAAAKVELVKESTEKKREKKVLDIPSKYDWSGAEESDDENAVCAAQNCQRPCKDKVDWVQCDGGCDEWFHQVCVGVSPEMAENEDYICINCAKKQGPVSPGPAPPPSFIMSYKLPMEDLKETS

Usually IC50 stands for the concentration that gives 50% inhibition. A lower IC50 goes with inhibition by little substance. `CC(C)n1cnc(C(=O)N2C[C@@H]3[C@H](C2)[C@H]3C(=O)N(C)C2(C#N)CC2)c1` [Example 69, (1R,5S,6r)-N-(1-cyanocyclopropyl)-N-methyl-3-[1-(propan-2-yl)-1H-imidazole-4-carbonyl]-3-azabicyclo[3.1.0]hexane-6-carboxamide]: the IC50 in data set [1] stood at 200 nM. The “Metabolic stability in human liver microsomes (% remaining at 60 min)” value (“Metabolic stability … (% remaining at 60 min)” for short) in data set [2] (setting [3]) was 89%.

`CC(C)n1cnc(C(=O)N2C[C@@H]3[C@H](C2)[C@H]3C(=O)C2CC2)c1` [Example 75, cyclopropyl{(1R,5S,6r)-3-[(1-isopropyl-1H-imidazol-4-yl)carbonyl]-3-azabicyclo[3.1.0]hex-6-yl}methanone]: the IC50 in data set [1] amounted to 400 nM. Besides, in data set [2] (human, microsomes, 1 h), the “Metabolic stability … (% remaining at 60 min)” value was 102%.

In data set [1], `CC(C)n1cnc(C(=O)N2C[C@@H]3[C@H](C2)[C@@]3(C)C2=NOC3(CC3)C2)c1` [Example 84, (1-isopropyl-1H-imidazol-4-yl)[(1R,5S,6r)-6-methyl-6-(4-oxa-5-azaspiro[2.4]hept-5-en-6-yl)-3-azabicyclo[3.1.0]hex-3-yl]methanone] came in with an IC50 of 30 nM. In data set [2] (setting [3]), the “Metabolic stability … (% remaining at 60 min)” value turned out to be 92%.

Molecule `CC(C)n1cnc(C(=O)N2C[C@@H]3[C@H](C2)[C@@]3(C)C(=O)NC(C)(C)C)c1` [Example 87, (1R,5S,6r)-N-tert-butyl-6-methyl-3-[1-(propan-2-yl)-1H-imidazole-4-carbonyl]-3-azabicyclo[3.1.0]hexane-6-carboxamide] returned an IC50 in data set [1] of 40 nM. The “Metabolic stability … (% remaining at 60 min)” value in data set [2] (setting [3]) turned out to be 99%.

Turning to `CC(c1cc(C(=O)N2C[C@@H]3C(C4=NOC(C)(C)C4)[C@@H]3C2)n[nH]1)C1CC1` (stereo partly drawn) [Example 90, [5-(1-cyclopropylethyl)-1H-pyrazol-3-yl][(1R,5S,6r)-6-(5,5-dimethyl-4,5-dihydro-1,2-oxazol-3-yl)-3-azabicyclo[3.1.0]hex-3-yl]methanone], the IC50 in data set [1] was 50 nM. Further, the “Metabolic stability … (% remaining at 60 min)” value in data set [2] (setting [3]) worked out at 100%.

Regarding `CC1CC(C2[C@H]3CN(C(=O)c4cc(C(C)C)[nH]n4)C[C@@H]23)=NO1` (stereo partly drawn) [Example 93, (5-isopropyl-1H-pyrazol-3-yl)[(1R,5S,6r)-6-(5-methyl-4,5-dihydro-1,2-oxazol-3-yl)-3-azabicyclo[3.1.0]hex-3-yl]methanone], in data set [1], the IC50 stood at 200 nM. Moreover, in data set [2] (human, microsomes, 1 h), the “Metabolic stability … (% remaining at 60 min)” value was 86%.

For `CC(C)c1cc(C(=O)N2C[C@@H]3[C@H](C2)[C@H]3C2=NO[C@H]3C[C@@H]23)n[nH]1` [Example 96, (5-isopropyl-1H-pyrazol-3-yl){(1R,5S,6r)-6-[(1S,5S)-2-oxa-3-azabicyclo[3.1.0]hex-3-en-4-yl]-3-azabicyclo[3.1.0]hex-3-yl}methanone], inhibition in data set [1] was half-maximal at 30 nM (IC50). In addition, the “Metabolic stability … (% remaining at 60 min)” value in data set [2] (human, microsomes, 1 h) stood at 83%.

In the case of `CCN1C([C@H]2[C@@H]3CN(C(=O)c4cc(C(C)C)[nH]n4)C[C@@H]32)=NOC1(C)C` [Example 110, [(1R,5S,6r)-6-(4-ethyl-5,5-dimethyl-4,5-dihydro-1,2,4-oxadiazol-3-yl)-3-azabicyclo[3.1.0]hex-3-yl](5-isopropyl-1H-pyrazol-3-yl)methanone], the IC50 in data set [1] is 50 nM. The “Metabolic stability … (% remaining at 60 min)” value in data set [2] (human, microsomes, 1 h) was 85%.

As to `Cc1nnc([C@H]2[C@@H]3CN(C(=O)c4cc(C(C)C)[nH]n4)C[C@@H]32)o1` [Example 119, (5-isopropyl-1H-pyrazol-3-yl)[(1R,5S,6r)-6-(5-methyl-1,3,4-oxadiazol-2-yl)-3-azabicyclo[3.1.0]hex-3-yl]methanone], in data set [1], the IC50 is 300 nM. In data set [2] (human, microsomes, 1 h), the “Metabolic stability … (% remaining at 60 min)” value is 102%.

As to `CC(C)c1cc(C(=O)N2C[C@@H]3[C@H](C2)[C@H]3c2nncn2-c2ccccc2)n[nH]1` [Example 121, (5-isopropyl-1H-pyrazol-3-yl)[(1R,5S,6r)-6-(4-phenyl-4H-1,2,4-triazol-3-yl)-3-azabicyclo[3.1.0]hex-3-yl]methanone], half-maximal inhibition in data set [1] (IC50) required 40 nM. Besides, the “Metabolic stability … (% remaining at 60 min)” value in data set [2] (human, microsomes, 1 h) was 114%.
